Experimental data reported in the supplement of paper PMC10307832.

Tests used:
Assay in all cases: relative viability (nuclei count vs DMSO), 5 days (fraction); higher = more cells survive
[1] = compound: CC1=CC=C(C=C1)C(=O)CN2C3=C(CCCC3)SC2=N [Pifithrin_alpha] + NC(=O)Nc1cc(-c2cccc(F)c2)sc1C(=O)N[C@H]1CCCNC1 [AZD7762] (partner 0.2 µM)
Summary of the method: (§1)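 One day after seeding in 1536-well plates, lung cancer cell lines were dosed by pin tool. Dosing was either single-drug or a fixed anchor-drug dose plus five library-drug doses (not always all listed) in √10 steps. After 5 days, nuclei were stained in one fix-and-stain step and counted on 4× images, and relative viability is the nuclei count of treated wells over that of vehicle wells, given as the median of duplicate plates.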

Axitinib + Pictilisib = compound: CNC(=O)c1ccccc1Sc1ccc2c(/C=C/c3ccccn3)n[nH]c2c1 [Axitinib] + CS(=O)(=O)N1CCN(Cc2cc3nc(-c4cccc5[nH]ncc45)nc(N4CCOCC4)c3s2)CC1 [Pictilisib] (partner 1 µM)
Summary of the method: as §1

Bemcentinib + Foretinib = compound: Nc1nc(Nc2ccc3c(c2)CC[C@@H](N2CCCC2)CC3)nn1-c1cc2c(nn1)-c1ccccc1CCC2 [Bemcentinib] + COc1cc2c(Oc3ccc(NC(=O)C4(C(=O)Nc5ccc(F)cc5)CC4)cc3F)ccnc2cc1OCCCN1CCOCC1 [Foretinib] (partner 0.25 µM)
Summary of the method: as §1

Bemcentinib + Phenformin = compound: Nc1nc(Nc2ccc3c(c2)CC[C@@H](N2CCCC2)CC3)nn1-c1cc2c(nn1)-c1ccccc1CCC2 [Bemcentinib] + N=C(N)NC(=N)NCCc1ccccc1 [Phenformin] (partner 250 µM)
Summary of the method: as §1

NCI-H650
relative viability ([1]; first compound 3.162 µM): 1.08
relative viability ([1]; first compound 10 µM): 0.932
relative viability ([1]; first compound 31.62 µM): 0.718
relative viability ([1]; first compound 100 µM): 0.905
relative viability (Axitinib + Pictilisib; first compound 0.005 µM): 0.9
relative viability (Axitinib + Pictilisib; first compound 0.01581 µM): 1.03
relative viability (Axitinib + Pictilisib; first compound 0.05 µM): 0.764
relative viability (Axitinib + Pictilisib; first compound 0.1581 µM): 0.945
relative viability (Axitinib + Pictilisib; first compound 0.5 µM): 0.846
relative viability (Bemcentinib + Foretinib; first compound 0.04 µM): 0.975
relative viability (Bemcentinib + Foretinib; first compound 0.1265 µM): 1.16
relative viability (Bemcentinib + Foretinib; first compound 0.4 µM): 1.04
relative viability (Bemcentinib + Foretinib; first compound 1.265 µM): 1.02
relative viability (Bemcentinib + Foretinib; first compound 4 µM): 1.05
relative viability (Bemcentinib + Phenformin; first compound 0.04 µM): 0.407
relative viability (Bemcentinib + Phenformin; first compound 0.1265 µM): 0.487
relative viability (Bemcentinib + Phenformin; first compound 0.4 µM): 0.484
relative viability (Bemcentinib + Phenformin; first compound 1.265 µM): 0.429
relative viability (Bemcentinib + Phenformin; first compound 4 µM): 0.415
